Measurements published in ChEMBL document CHEMBL1151349, “The antineoplastic quassinoids of Simaba cuspidata spruce and Ailanthus grandis Prain” (1980).
Active and inactive are the calls of the source. The calls are words filed in the database; no cut-off is given here.

What was measured:
[1] = system: P388; test: In vivo antineoplastic activity against mouse P388 cells upto 2.0 mg/kg; type: functional, organism-based; parameters: dose 2 mg/kg
[2] = system: P388; test: Antineoplastic activity against mouse P388 cells; type: functional
[3] = system: P388; test: In vivo antineoplastic activity against mouse P388 cells assessed as increase in survival time at 0.08 to 0.60 mg/kg; type: functional; conditions: dose mg/kg 0.08-0.60

| SMILES | Activity [1] | GI [2] | Activity [2] | Activity [3] |
| --- | --- | --- | --- | --- |
| C/C=C(/C)C(=O)O[C@@H]1[C@H]2C(C)=C[C@H](O)[C@@H](O)[C@]2(C)[C@H]2[C@@]3(O)OC[C@@]24[C@@H]1OC(=O)C[C@H]4[C@@H](C)[C@H]3O | inactive | 0.24 µg/mL | – | – |
| CC[C@@](C)(OC(C)=O)C(=O)O[C@H]1C(=O)O[C@@H]2C[C@H]3C(C)=C[C@H](O)[C@@H](O)[C@]3(C)[C@H]3[C@@]4(O)OC[C@]32[C@@H]1[C@@H](C)[C@H]4O | – | – | inactive | – |
| C/C=C(/C)C(=O)O[C@@H]1[C@H]2C(C)=CC(=O)[C@@H](O)[C@]2(C)[C@H]2[C@@]3(O)OC[C@@]24[C@@H]1OC(=O)C[C@H]4[C@@H](C)[C@H]3O | – | <0.01 µg/mL | – | 34% |
